Like-named read-outs stand apart in the source and are kept apart here.
Experiments:
[1] = test system: Jurkat (human lymphoblastoma); experiment: Light-activated killing of cell lines (IC50 with/without light); assay type: cell-based
Experimental: (§1) TABLE 15 depicts the IC50 of compounds in the presence or absence of light for human cell lines. The cell lines used were HeLa (human cervical adenocarcinoma), U-87 MG (human brain gliobastoma), MES-SA (human uterine sarcoma), MES-SA/D×5 (human uterine sarcoma grown in presence of doxorubicin), NCI-H441 (human lung papillary adenocarcinoma), A549 (human lung carcinoma), WI-38 (human embryonic lung normal), MCF7 (human breast adenocarcinoma), SW1088 (human brain astrocytoma), B16F10 (mouse skin melanoma), NIH-3T3 (mouse fibroblast), and Jurkat (human lymphoblastoma). “1-Sol” in TABLE 15 was generated by dissolving compound 1 and potassium hydroxide at a 1:1 ratio in a DMSO/water solution. The cells were irradiated with continuous white light using a LumaCare™ light source for 2 minutes at a distance of 6.5 cm from the cells.

[2] = test system: NCI-H441 (human lung papillary adenocarcinoma); experiment: as above; assay type: cell-based
Experimental: as §1

[3] = test system: MES-SA/Dx5 (human uterine sarcoma grown in presence of doxorubicin); experiment: as above; assay type: cell-based
Experimental: as §1

[4] = test system: MES-SA (human uterine sarcoma); experiment: as above; assay type: cell-based
Experimental: as §1

[5] = test system: SW1088 (human brain astrocytoma); experiment: as above; assay type: cell-based
Experimental: as §1

E. coli [6] = experiment: MIC against E. coli; assay type: cell-based; settings: Escherichia coli
From the text: TABLE 18 details the obtained MIC values for cells treated with compound 1, light, PMB, and Polymyxin E (PME) against E. coli.

Trypanosoma cruzi = experiment: Light-activated killing of parasites (MTT IC50); assay type: cell-based
Experimental: Trypanosomes were cultured in LIT media+10% FBS. The compounds were added to create a dilution series and incubated with the trypanosomes for 1 hour. The trypanosomes were then irradiated with continuous white light for 2 minutes at a distance of 6.5 cm using a LumaCare™ light source.

MRSA (ATCC No. BAA-44) = experiment: Synergy of compound 1 with antibiotics, isobologram; assay type: cell-based, S. aureus; settings: vancomycin, tetracycline, doxycycline, norfloxacin, dicloxicillin, oxacillin, penicillin G, tobramycin; FIGS. 14, 15
From the text: The synergy of two compounds with varying relative potencies can be represented using an isobologram. An isobologram plots the normalized effective concentrations of each drug on each axis, where the sum of the two concentrations equals the line of additivity. Outside the line of additivity, when the sum>1, the effect of the two drugs is considered antagonistic; inside of the line of additivity, when the sum<1, the effect of the two drugs is considered superadditive, or when the sum≦0.5, the effect of the two drugs is considered synergistic.
An illustrative example based on a single data point for each antibiotic in combination with compound 1 against MRSA (ATCC No. BAA-44) is shown in FIG. 14. A zoomed-in isobologram for the same data as shown in FIG. 14 is depicted in FIG. 15 specifically for the synergistic area.

E. coli [7] = experiment: Checkerboard assay (FICI); assay type: cell-based; settings: with PMB
Experimental: (§2) Another method for determining synergy is a checkerboard assay. A checkerboard assay is performed whereby one of the test compounds is serially diluted horizontally across a plate, while the other test compound is serially diluted vertically down the plate. The perpendicular serial dilutions result in combinations of the compounds that range in concentrations from the highest to the lowest of each compound added. In the present study, the checkerboard assay method was adjusted by serially diluting one of the test compounds horizontally and adding the second drug to each well at a concentration of ¼ MIC. The 24-well microtiter plate was then incubated at 37° C. for 18-24 hours on a rotary shaker incubator at 150 rpm. After incubation, MTT reagent was added to each well at a 10% sample volume. Synergy was determined on the lowest concentration of the combined drugs, which produced no purple coloring. Calculation of synergy was determined by the Fractional Inhibitory Concentration Index (FICI): FICI=([Drug 1]Synergy/[Drug1]MIC)+([Drug 2]Synergy/[Drug 2]MIC). FICI≦0.5 is an indication of synergy.
(§3) TABLE 17 details the obtained FICI values for compound 1 in combination with varying antibiotics against MRSA, A. baumannii, and E. coli.

A. baumannii = experiment: Checkerboard assay (FICI); assay type: cell-based; settings: with PMB
Experimental: as §2, §3

[8] = test system: S. aureus (ATCC No. 29213); experiment: Light-activated killing, colony counts; assay type: cell-based; settings: for Dark Toxicity: no light; for Light Toxicity: white light 2 minutes
Experimental: Dose-dependent effects of treating bacteria with compound 1 and irradiation with white light were assessed by treating 10^8 CFU/mL of cells with compound 1, followed by irradiation with white light for 2 minutes. Compound 1 was added at a specific concentration to 1 mL of a 10^8 CFU/mL suspension of the respective bacterial cells, and the cells were incubated at 37° C. for approximately 45 minutes on a rotary shaker at 150 rpm. 0.5 mL of the cell suspension was removed and placed into the wells of a sterile ceramic drop plate, and then the cells were irradiated with white light from a Lumacare™ LC 122A light source for 2 minutes at a distance of approximately 3 cm. The time and distance of the light application delivered about 85 J/cm^2 of 400-700 nm light to the sample. After being irradiated, ten-fold dilutions were made of each cell sample. The dilutions were drip-streaked onto a tryptic soy agar (TSA) plate and incubated at 37° C. for 18-24 hours. Enumeration of bacteria was determined from the dilution, which produced a drip-streak containing approximately 30-300 colonies. After counting the colonies, the CFU/mL was calculated by applying the respective dilution factor and a factor of 100 to account for the 10 μL of sample taken. Appropriate controls were prepared, including cells with no treatment, cells with only compound 1 added, and cells only treated with light.
The error bars in FIG. 10 represent the variations between three replicate determinations.

[9] = 2 min, white light 2 minutes, read-out: Compound + light IC50
[10] = no light, read-out: Compound IC50

Q: For `Clc1ccc(/C=C/c2[nH]c3ccccc3c2/C=C/c2ccc(Cl)cc2)cc1` [Compound 1], which IC50 [1, 9] is on record?
A: 25 nM

Q: And the IC50 [1, 10]?
A: > 10000 nM

Q: What about the IC50 [2, 9] of the same molecule?
A: 760 ± 70 nM

Q: And the IC50 [2, 10]?
A: 50700 ± 4370 nM

Q: And the IC50 ([3]; Homo sapiens, MES-SA/Dx5, 2 min, MES-SA/Dx5 (no doxorubicin), white light 2 minutes, read-out: Compound + light IC50)?
A: 720 ± 70 nM

Q: And the IC50 ([3]; Homo sapiens, MES-SA/Dx5, 2 min, MES-SA/Dx5 + doxorubicin, white light 2 minutes, read-out: Compound + light IC50)?
A: 440 ± 100 nM

Q: What about the IC50 ([3]; Homo sapiens, MES-SA/Dx5, MES-SA/Dx5 + doxorubicin, no light, read-out: Compound IC50) of the same molecule?
A: 38800 ± 2760 nM

Q: What about the IC50 ([3]; MES-SA/Dx5 (no doxorubicin), white light 2 minutes, read-out: Compound + light IC50) of the same molecule?
A: 620 ± 30 nM

Q: And the IC50 [4, 9]?
A: 360 ± 50 nM

Q: And the IC50 [4, 10]?
A: 42700 ± 3400 nM

Q: What about the IC50 [5, 9] of the same molecule?
A: 470 ± 30 nM

Q: What about the IC50 [5, 10] of the same molecule?
A: > 50000 nM

Q: And the MIC (E. coli [6])?
A: > 200 µg/mL

Q: And the IC50 (Trypanosoma cruzi; continuous white light 2 minutes, MTT 24 hours later, read-out: Compound + light IC50)?
A: < 500 nM

Q: And the IC50 (Trypanosoma cruzi; no light, read-out: IC50)?
A: > 100000 nM

Q: And the “synergy with antibiotics (isobologram)” value (MRSA (ATCC No. BAA-44))?
A: able to synergize with every tested antibiotic

Q: What about the “FIC Index” value (E. coli [7]) of the same molecule?
A: 0.2

Q: What about the “FIC Index” value (A. baumannii) of the same molecule?
A: 0.1

Q: What about the “Dark Toxicity” value ([8]; 0.1 μM) of the same molecule?
A: 1.63 × 10^8 ± 1.72 × 10^7 CFU/mL

Q: What about the “Light Toxicity” value ([8]; 0.1 μM) of the same molecule?
A: 1.20 × 10^5 ± 5.12 × 10^4 CFU/mL

Q: What about the “Dark Toxicity” value ([8]; 0.5 μM) of the same molecule?
A: 2.67 × 10^6 ± 2.10 × 10^6 CFU/mL

Q: And the “Light Toxicity” value ([8]; 0.5 μM)?
A: 1.60 × 10^3 ± 1.44 × 10^3 CFU/mL

Q: What about the “Dark Toxicity” value ([8]; 1.0 μM) of the same molecule?
A: 1.34 × 10^6 ± 3.04 × 10^5 CFU/mL

Q: And the “Light Toxicity” value ([8]; 1.0 μM)?
A: None detected (<100 CFU/mL)

Q: And the “Dark Toxicity” value ([8]; 5.1 μM)?
A: 7.13 × 10^4 ± 1.80 × 10^4 CFU/mL

Q: And the “Light Toxicity” value ([8]; 5.1 μM)?
A: None detected (<100 CFU/mL)
